This note sets out measurements from a melting point compilation (Tetko et al.).

For `Cc1nc(-c2ccc(C(F)(F)F)cc2)sc1C(=O)Cl`, the melting point (commonly the temperature of the solid-liquid transition) lay within 85 to 86 °C.

In turn, `Cc1c(C)c2ccccc2c2ccccc12` registered a melting point of 144 °C.

Turning to `O=C(c1ccccc1)C(Br)C(Br)c1ccccc1` (stereo not drawn), the melting point is 156 °C.

For `O=C(Oc1ccccc1C(=O)O)c1ccccc1O`, the melting point was found to be 147 °C.

`CC(C)(C)c1nnc(N)s1`: the melting point is 183 °C.

`COc1cc(OC)c(C)c(OC)c1` gave a melting point of 28 °C.

As to `CCCCCc1ccc(NC(=O)c2ccc(C)cc2)cc1`, the melting point was determined as 129 °C.

`c1cnc(N2CCN(Cc3ccc4c(c3)OCO4)CC2)nc1` had a melting point of 98 °C.

For the compound `CC(O)C(N)CO` (stereo not drawn), the melting point was in the range of 54 to 57 °C.

Regarding `NC(=O)C[C@H](NC(=O)OCC1c2ccccc2-c2ccccc21)C(=O)O`, the melting point turned out to be 180 °C.

The compound `Cc1cc(C(=O)O)cc(C(=O)O)c1` yielded a melting point of 299 °C.

Compound `O=Cc1cc(Cl)c(O)c(Cl)c1` yielded a melting point of 154 to 156 °C.

`Nc1cnccc1I` displayed a melting point of 61 °C.

Take `O=Cc1ccc2c(c1)OCCO2`: the melting point is 52 to 53 °C.

Compound `CC(=O)NCc1ccccc1` had a melting point of 61 °C.

`CC(C)(C)OC(=O)N1CCN(c2ccc(I)cn2)CC1` displayed a melting point of 102 to 105 °C.

As for `Cc1ccc(S(=O)(=O)OCC2Cc3ccccc3O2)cc1` (stereo not drawn), the melting point fell in the range of 72 to 73 °C.

For the compound `COC(=O)NC1C(O)OC(CO)C(O)C1O` (stereo not drawn), the melting point was 196 °C.

As to `COc1ccc([N+](=O)[O-])cc1C(=O)O`, the melting point was found to be 157 °C.

As for `Cc1noc(C)c1N`, the melting point fell in the range of 52 to 54 °C.

`Clc1cc2c(c(Cl)c1Cl)Oc1cc(Cl)c(Cl)c(Cl)c1O2` gave a melting point of 285 °C.

Compound `COc1ccc2c(c1)C(=O)CC(c1ccccc1)O2` (stereo not drawn) returned a melting point of 142 °C.

As for `N/N=C(/C(=O)c1ccc2c3c(cccc13)CC2)c1ccccc1`, the melting point came to 200 °C.

Regarding `FC(F)OCC(F)(F)C(F)(F)F`, the melting point is -107 °C.

As to `O=[N+]([O-])c1cccc(NN=Cc2ccccc2)c1`, the melting point was determined as 196 °C.

`O=C(Cl)c1ccc(Cl)c(Cl)c1`: the melting point worked out at 32 °C.

As for `O=C(O)C[C@@H](NC(=O)OCC1c2ccccc2-c2ccccc21)c1ccc(Br)cc1`, the melting point stood at 192 °C.

For `C=CCCCCCCCCC(=O)OCC`, the melting point was -38 °C.

The compound `O=C(N=C=S)c1ccc([N+](=O)[O-])cc1` registered a melting point of 90 to 92 °C.

`O=C1CCC(=O)C1`: the melting point was 152 °C.

For `N#CC1=C(N)OC2(C(=O)Nc3ccccc32)C2=C1CCCC2` (stereo not drawn), the melting point came to 231 °C.

As to `CCCC(c1ccccc1)c1ccccc1`, the melting point worked out at 27 °C.

Compound `O=C1C2=C(C(=O)c3ccccc31)C1(CC1)C21CC1` returned a melting point of 103 °C.

Consider `Cn1cc(NC(=O)OC(C)(C)C)cc1C(=O)O`, for which the melting point is 138 to 143 °C.

`NC(Cc1ccc(O)c(O)c1)C(=O)O` (stereo not drawn) displayed a melting point of 295 °C.

`Cc1ccc(-c2onc(C(=O)c3ccc(Cl)cc3)c2S(=O)(=O)c2ccccc2)cc1` yielded a melting point of 149 °C.

Regarding `Cc1ccc(NC(=O)NC(C)(C)c2ccccc2)cc1`, the melting point was 203 °C.

Consider `Clc1ccc(C2(Cn3cncn3)CC(Br)CO2)c(Cl)c1` (stereo not drawn), for which the melting point turned out to be 84 °C.

In turn, `CCOC(=O)c1sc2sc(C#N)c(N)c2c1N` showed a melting point of 260 °C.

In turn, `Nc1cc(N)cc(C(=O)O)c1` registered a melting point of 235 °C.

As for `FC1(F)C(Cl)=C(Cl)C(F)(F)C1(F)F`, the melting point was -106 °C.

As to `O=C(CCCCl)c1ccc(O)cc1`, the melting point amounted to 113 °C.

On to `COC1(C=O)C=CC2=C(C1)OCO2` (stereo not drawn), for which the melting point worked out at 129 °C.

Compound `N#CCc1nc(-c2ccccc2)cs1` yielded a melting point of 59 to 60 °C.

Consider `O=[N+]([O-])c1ccccc1CBr`, for which the melting point came to 47 °C.

In the case of `Nc1cc(Cl)c(Cl)cc1[N+](=O)[O-]`, the melting point amounted to 181 °C.

`CN(C)c1ccccc1-c1ccccc1P(C1CCCCC1)C1CCCCC1`: the melting point is 123 °C.

`CC(CN(CC(=O)O)CC(=O)O)N(CC(=O)O)CC(=O)O` (stereo not drawn): the melting point lay in the range of 241 to 243 °C.

In turn, `CCCCOc1ccc(-c2nnc3sc(-c4ccc(Cl)c([N+](=O)[O-])c4)nn23)cc1` had a melting point of 70 °C.

Turning to `COc1cc(C)oc(=O)c1`, the melting point was 86 °C.

As for `COC(=O)c1nc(Cl)c(N)nc1N`, the melting point was 212 °C.

`CC(=O)c1ccc(-c2ccc(C(C)=O)cc2)cc1`: the melting point is 192 to 196 °C.

In the case of `O=C(O)C1CCNCC1`, the melting point stood at 336 °C.

The compound `O=C1CCC(c2ccc(NC(=O)C(Cl)Cl)cc2)=NN1` had a melting point of 252 to 253 °C.

Consider `CCCCC(CC)C(=O)O` (stereo not drawn), for which the melting point is -59 °C.

`CCN(CC)C(=O)SCc1ccccc1Cl` returned a melting point of 9 °C.

Regarding `NC(=S)Nc1ccc(C(=O)O)cc1`, the melting point was 255 °C.

Turning to `COc1cc2oc(=O)cc(CBr)c2cc1OC`, the melting point came to 202 °C.

In turn, `FC(F)(F)c1nn2c(=S)nc(-c3ccccc3)nc2s1` showed a melting point of 222 °C.

In turn, `CC(N)P(=O)(O)O` (racemic) had a melting point of 283 to 284 °C.

`CCCCCCCCCCCCC1CCCCC1` came in with a melting point of 12.5 °C.

Turning to `CCCCCCCCCCCCCCCCCC(C)C`, the melting point stood at 18 °C.

`O=C(O)c1scc2c1OCCO2` had a melting point of 205 to 206 °C.

On to `CC(=O)N1CCCCC1`, for which the melting point was -13.4 °C.

`O=Cc1c[nH]c2ccc([N+](=O)[O-])cc12` came in with a melting point of 300 °C.

For the compound `COc1ccc(N2C(=O)C3ON=C(C(=O)c4ccccc4)C3C2=O)cc1` (stereo not drawn), the melting point was found to be 166 °C.

`NNC(=O)c1cc2ccccc2cc1O` yielded a melting point of 206 to 208 °C.

Compound `Cc1ccccc1N=O` yielded a melting point of 73.5 °C.

Take `NNC(=S)Nc1ccc(C(F)(F)F)cc1`: the melting point was found to be 167 °C.

Consider `O=[N+]([O-])c1cnc(Cl)c([N+](=O)[O-])c1`, for which the melting point is 63 to 66 °C.

In turn, `CCC(C)Nc1ccc(NC(C)CC)cc1` (stereo not drawn) returned a melting point of 18 °C.

In the case of `CCCNC(=O)NNC(=O)OCC`, the melting point turned out to be 95 °C.

`COc1cc(N=C=O)cc(OC)c1OC` registered a melting point of 40 °C.

`N#Cc1c(S)nc2c(c1C(F)(F)F)CCCC2` gave a melting point of 216 to 220 °C.

Consider `N#CCCN(CCC#N)c1ccccc1`, for which the melting point fell in the range of 80 to 88 °C.

`Cc1ccc2oc(C(=O)O)cc(=O)c2c1` showed a melting point of 267 to 270 °C.

On to `N#Cc1ccc[nH]c1=O`, for which the melting point fell in the range of 222 to 225 °C.

With `OCCC1CCCCC1`, the melting point is -20 °C.

Take `CC(C)c1ccc(Br)cc1`: the melting point is -12 °C.

`O=C(c1ccccc1)c1ccccc1C(=O)c1ccccc1` had a melting point of 146 °C.

`O=C(CBr)c1ccc(C(F)(F)F)cc1` gave a melting point of 45 to 46 °C.

`Cc1ccc(Sc2ccc([N+](=O)[O-])cc2C=O)cc1` returned a melting point of 157 to 158 °C.

Consider `O=C(Oc1ccc(Cl)cc1)c1ccc(Oc2ccc(C(=O)Oc3ccc(Cl)cc3)cc2)cc1`, for which the melting point worked out at 149 °C.

The compound `NC(=S)NCCCc1ccccc1` displayed a melting point of 111 °C.

Consider `Cc1cc2cc3ccccc3cc2cc(C)c1=O`, for which the melting point is 182 °C.

Regarding `Clc1ccc(C(Cl)(Cl)Cl)cc1Cl`, the melting point is 25.8 °C.

In turn, `Nc1c2ccccc2nc2ccccc12` displayed a melting point of 241 °C.

`O=[N+]([O-])c1cccnc1Oc1ccccc1F` came in with a melting point of 90 to 92 °C.

The compound `OC(O)C(Br)(Br)Br` returned a melting point of 53.5 °C.

For `CCOC(=O)NC1C2CCC(C)(C1O)C2(C)C` (stereo not drawn), the melting point was 76 °C.

For the compound `Cc1cc(O)c(C(C)C)cc1SC#N`, the melting point was 103 to 105 °C.

In turn, `COC(=O)C(Cl)C(Cl)c1cccc(C(Cl)C(Cl)C(=O)OC)c1` (stereo not drawn) displayed a melting point of 131 °C.

With `CCN(C)C(=O)COC(=O)c1ccccc1`, the melting point was found to be 20 °C.

`CCOC(=O)C(=Nn1nnc2ccccc21)C(=O)OCC`: the melting point stood at 100 °C.

`O=C(O)c1c(C(F)(F)F)ccnc1F` had a melting point of 92 °C.

`CCC(C1CCc2cc(O)ccc2C1)C(C)(C)C(=O)O` (stereo not drawn) came in with a melting point of 163 °C.

In turn, `CCC1OC(=O)C(O)=C1C` (stereo not drawn) displayed a melting point of 27 to 30 °C.

In turn, `CC1(C)CC(=O)c2cc(-c3ccccc3)n(-c3ccc(Cl)c(Cl)c3)c2C1` gave a melting point of 167 to 169 °C.

Consider `O=Cc1ccc(N2CCOCC2)s1`, for which the melting point was 126 to 128 °C.

`ICCCCCI` had a melting point of 9 °C.

For `O=Cc1ccc(-c2ccc([N+](=O)[O-])cc2)o1`, the melting point was in the range of 204 to 208 °C.

In turn, `Cc1c(Cl)c(C)c([N+](=O)[O-])c(O)c1Cl` yielded a melting point of 227 to 229 °C.

`CC(C)(c1ccccc1)C(C)(C)c1ccccc1` had a melting point of 90 to 110 °C.

Compound `COC(=O)CCC(C)C1CCC2C3C=CC4CC(OC(C)=O)CCC4(C)C3CC(OC(C)=O)C12C` (stereo not drawn) gave a melting point of 86.5 to 87.5 °C.

On to `O=C(O)c1cn2ccsc2n1`, for which the melting point lay within 233 to 234 °C.

As to `O=C(O)CCCCCCCCCCO`, the melting point came to 65.5 °C.

`CCCS(=O)CCC` gave a melting point of 22.5 °C.

In turn, `O=C(Nc1ccc(N=Nc2ccc(N=Nc3ccc(NC(=O)c4ccccc4)cc3)cc2)cc1)c1ccccc1` came in with a melting point of 336 °C.

The compound `Nc1n[nH]c(-c2ccccc2)c1Br` returned a melting point of 118 to 120 °C.

As for `CCCC(C)c1ccccc1` (stereo not drawn), the melting point is -70 °C.

The compound `COc1ccccc1-c1ccc(C=CC(=O)c2ccccc2)o1` showed a melting point of 98 to 99 °C.

In the case of `Clc1ccc(OCCCI)cc1`, the melting point is 31 to 33 °C.

`C=C1C(=O)C23C4CC5C(C)(C)CCC(OC(C)=O)C5(C(=O)O4)C2C(OC(C)=O)CC1C3OC(C)=O` (stereo not drawn): the melting point was determined as 230 °C.
